Experimental data: patent publication US10294202B2, “Pyrrolidinones as herbicides” (FMC Corporation, priority 2013, dated 2019)

Experiments:
[1] = system: barnyardgrass; assay: Test A pre-/postemergence herbicide test; format: in vivo, Echinochloa crus-galli; conditions: for Plant response rating, Barnyardgrass: 0 to 100 scale
Outline: (§1)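 Seeds sown in loam soil/sand blend received a preemergence directed soil spray of test chemical in non-phytotoxic solvent with surfactant; postemergence plants (2–10 cm, one- to two-leaf stage) were sprayed with the same formulation. After about 10 days in greenhouse, injury was rated visually versus untreated controls, 0 (no effect) to 100 (complete control).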

[2] = system: giant foxtail; assay: Test A pre-/postemergence herbicide test; format: in vivo, Setaria faberii; conditions: for Plant response rating, Foxtail, Giant: 0 to 100 scale
Outline: as §1

[3] = system: corn; assay: Test A pre-/postemergence herbicide test; format: in vivo, Zea mays; conditions: Postemergence; for Plant response rating, Corn: 125 g ai/ha, 0 to 100 scale, 0 is no effect, 100 is complete control; for Corn plant response rating (0 to 100 scale, 0 is no effect, 100 is complete control): 500 g ai/ha
Outline: as §1

[4] = system: ducksalad; assay: Test B flooded paddy test; format: in vivo, Heteranthera limosa; conditions: 500 g ai/ha, Flood; scale of 0 to 100 where 0 is no effect and 100 is complete control
Outline: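 In-water application to pots flooded 3 cm deep, plants at 2-leaf stage. Held in greenhouse 13–15 days at constant flood depth. Scored 0–100 by eye against controls.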

[5] = system: ryegrass, Italian; assay: Test C pre-/postemergence herbicide test; format: in vivo, Lolium multiflorum
Outline: (§2)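 Visual rating, 0 (no effect) to 100 (complete control), versus untreated controls after 13 to 15 days in the greenhouse. Pre: seeds in loam/sand, sprayed at planting. Post: 1- to 4-leaf plants (2 to 18 cm) in peat-based mix. Compounds in non-phytotoxic solvent plus surfactant.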

[6] = system: corn; assay: Test C pre-/postemergence herbicide test; format: in vivo, Zea mays
Outline: as §2

[7] = system: lambsquarters; assay: Test C pre-/postemergence herbicide test; format: in vivo, Chenopodium album
Outline: as §2

[8] = system: nutsedge, yellow; assay: Test C pre-/postemergence herbicide test; format: in vivo, Cyperus esculentus
Outline: as §2

[9] = system: soybean; assay: Test C pre-/postemergence herbicide test; format: in vivo, Glycine max
Outline: as §2

[10] = system: barnyardgrass; assay: Test C pre-/postemergence herbicide test; format: in vivo, Echinochloa crus-galli; conditions: for Barnyardgrass plant response rating: scale 0 to 100, 0 is no effect and 100 is complete control
Outline: as §2

[11] = system: waterhemp; assay: Test C pre-/postemergence herbicide test; format: in vivo, Amaranthus rudis
Outline: as §2

[12] = 125 g ai/ha, visual rating, 0 no effect, 100 complete control, approximately 10 days, preemergence
[13] = Postemergence, 125 g ai/ha, 0 is no effect, 100 is complete control
[14] = preemergence, 500 g ai/ha, 0 is no effect and 100 is complete control
[15] = Postemergence, 31 g ai/ha, scale 0 to 100 (0 no effect, 100 complete control)
[16] = Postemergence, 62 g ai/ha, scale 0 (no effect) to 100 (complete control)
[17] = Postemergence, 125 g ai/ha, scale 0 to 100 (0 no effect, 100 complete control)
[18] = Postemergence, 250 g ai/ha, scale 0 to 100 (0 no effect, 100 complete control)
[19] = Preemergence, 31 g ai/ha, scale 0 to 100, 0 is no effect and 100 is complete control
[20] = Preemergence, 62 g ai/ha, scale 0 to 100 (0 no effect, 100 complete control)
[21] = Preemergence, 125 g ai/ha, scale 0 to 100 (0 no effect, 100 complete control)
[22] = Preemergence, 62 g ai/ha, scale 0 to 100

O=C1NCC(c2ccc(C(F)(F)F)cc2)C1C(=O)Nc1ccc(F)c(F)c1F (stereo not shown) [Compound 232]
35: Corn plant response rating [6, 20]
0: Plant response rating, Ryegrass, Italian [5, 15] | Plant response rating, Ryegrass, Italian [5, 16] | Plant response rating, Ryegrass, Italian [5, 17] | Ryegrass, Italian plant response rating [5, 19] | Ryegrass, Italian plant response rating [5, 20] | Plant response rating, Corn [6, 15] | Plant response rating, Corn [6, 16] | Plant response rating, Corn [6, 17] | Plant response rating, Corn [6, 18] | Corn plant response rating [6, 19] | Plant response rating, Nutsedge, Yellow [8, 15] | Plant response rating, Nutsedge, Yellow [8, 16] | Nutsedge, Yellow plant response rating [8, 19] | Nutsedge, Yellow plant response rating [8, 20] | Plant response rating, Nutsedge, Yellow [8, 21] | Plant response rating, Soybean [9, 15] | Soybean plant response rating [9, 19] | Soybean plant response rating [9, 20] | Plant response rating, Soybean [9, 21]
70: Plant response rating, Corn [6, 21] | Plant response rating, Barnyardgrass [10, 17]
100: Plant response rating, Ducksalad [4] | Plant response rating (scale of 0 to 100), Nutsedge, Yellow ([8]; Preemergence, 250 g ai/ha)
10: Plant response rating, Soybean [9, 16] | Plant response rating, Soybean [9, 17]
20: Plant response rating, Ryegrass, Italian [5, 21] | Plant response rating, Soybean [9, 18]
75: Plant response rating (scale of 0 to 100), Corn ([6]; Preemergence, 250 g ai/ha) | Lambsquarters plant response rating [7, 19] | Plant response rating, Barnyardgrass [10, 18] | Plant response rating, Waterhemp [11, 15] | Plant response rating, Waterhemp [11, 16]
85: Plant response rating, Lambsquarters [7, 16] | Plant response rating, Lambsquarters [7, 17] | Plant response rating, Lambsquarters [7, 18] | Lambsquarters plant response rating [7, 20] | Barnyardgrass plant response rating ([10]; Preemergence, 31 g ai/ha) | Plant response rating, Barnyardgrass [10, 22] | Waterhemp plant response rating [11, 19]
5: Plant response rating, Nutsedge, Yellow [8, 17] | Plant response rating, Nutsedge, Yellow [8, 18] | Plant response rating (scale of 0 to 100), Soybean ([9]; Preemergence, 250 g ai/ha) | Plant response rating, Barnyardgrass [10, 15]
40: Plant response rating, Ryegrass, Italian [5, 18] | Plant response rating (scale of 0 to 100), Ryegrass, Italian ([5]; Preemergence, 250 g ai/ha)
95: Plant response rating, Barnyardgrass [10, 21] | Plant response rating (scale of 0 to 100; 0 is no effect, 100 is complete control), Barnyardgrass ([10]; Preemergence, 250 g ai/ha) | Plant response rating (scale of 0 to 100), Waterhemp ([11]; Preemergence, 250 g ai/ha)
80: Plant response rating, Barnyardgrass [1, 13] | Plant response rating, Corn [3] | Corn plant response rating (0 to 100 scale, 0 is no effect, 100 is complete control) [3] | Plant response rating, Lambsquarters [7, 15] | Plant response rating, Waterhemp [11, 17] | Plant response rating, Waterhemp [11, 18]
55: Plant response rating, Barnyardgrass [10, 16]
90: Plant response rating, Barnyardgrass [1, 12] | Barnyardgrass plant response rating (0 to 100 scale, 0 is no effect, 100 is complete control) ([1]; Postemergence, 500 g ai/ha) | Plant response rating, Barnyardgrass [1, 14] | Plant response rating, Foxtail, Giant [2, 12] | Plant response rating, Foxtail, Giant [2, 13] | Foxtail, Giant plant response rating (0 to 100 scale, 0 is no effect, 100 is complete control) ([2]; Postemergence, 500 g ai/ha) | Plant response rating, Foxtail, Giant [2, 14] | Plant response rating, Lambsquarters [7, 21] | Plant response rating (scale of 0 to 100), Lambsquarters ([7]; Preemergence, 250 g ai/ha) | Waterhemp plant response rating [11, 20] | Plant response rating, Waterhemp [11, 21]

O=C1NCC(c2ccc(C(F)(F)F)cc2)C1C(=O)Nc1ccccc1Cl (stereo not shown) [Compound 233]
80: Plant response rating, Barnyardgrass [1, 12] | Barnyardgrass plant response rating ([10]; Preemergence, 31 g ai/ha) | Waterhemp plant response rating [11, 20]
10: Plant response rating, Corn [6, 21]
95: Plant response rating, Lambsquarters [7, 21] | Waterhemp plant response rating [11, 19] | Plant response rating (scale of 0 to 100), Waterhemp ([11]; Preemergence, 250 g ai/ha)
70: Plant response rating, Barnyardgrass [1, 13]
0: Ryegrass, Italian plant response rating [5, 19] | Ryegrass, Italian plant response rating [5, 20] | Corn plant response rating [6, 19] | Corn plant response rating [6, 20] | Nutsedge, Yellow plant response rating [8, 19] | Nutsedge, Yellow plant response rating [8, 20] | Plant response rating, Nutsedge, Yellow [8, 21] | Plant response rating (scale of 0 to 100), Nutsedge, Yellow ([8]; Preemergence, 250 g ai/ha) | Soybean plant response rating [9, 19] | Soybean plant response rating [9, 20] | Plant response rating (scale of 0 to 100), Soybean ([9]; Preemergence, 250 g ai/ha)
90: Barnyardgrass plant response rating (0 to 100 scale, 0 is no effect, 100 is complete control) ([1]; Postemergence, 500 g ai/ha) | Plant response rating, Barnyardgrass [1, 14] | Plant response rating, Foxtail, Giant [2, 12] | Plant response rating, Foxtail, Giant [2, 13] | Foxtail, Giant plant response rating (0 to 100 scale, 0 is no effect, 100 is complete control) ([2]; Postemergence, 500 g ai/ha) | Plant response rating, Foxtail, Giant [2, 14] | Plant response rating (scale of 0 to 100), Lambsquarters ([7]; Preemergence, 250 g ai/ha) | Plant response rating (scale of 0 to 100; 0 is no effect, 100 is complete control), Barnyardgrass ([10]; Preemergence, 250 g ai/ha)
35: Plant response rating (scale of 0 to 100), Corn ([6]; Preemergence, 250 g ai/ha)
40: Plant response rating (scale of 0 to 100), Ryegrass, Italian ([5]; Preemergence, 250 g ai/ha)
85: Lambsquarters plant response rating [7, 19] | Lambsquarters plant response rating [7, 20] | Plant response rating, Barnyardgrass [10, 21] | Plant response rating, Waterhemp [11, 21]
30: Plant response rating, Ryegrass, Italian [5, 21]
20: Plant response rating, Corn [3] | Corn plant response rating (0 to 100 scale, 0 is no effect, 100 is complete control) [3]
100: Plant response rating, Ducksalad [4]
5: Plant response rating, Soybean [9, 21]
75: Plant response rating, Barnyardgrass [10, 22]
